A short description of assay [1]: DPPH scavenging assay. The following applies: for DPPH Free Radical Scavenging Ability: mean ± S.E.M, n = 3. An excerpt:
The antioxidant potential of the free acids and their Cu(II) carboxylates was explored via the DPPH method using ascorbic acid as a reference. The DPPH, with a single unpaired electron, is capable of accepting a hydrogen or electron and gives a strong absorption at 517 nm. The absorption generally decreases when it accepts a hydrogen or electron from an antioxidant, forming a stable molecule. The results given in Table 5 indicate that the compounds under study show a moderate level of antioxidant potential. This activity may be attributed to the various structural and electronic factors like coordination geometry, redox properties, chelate ring size, degree of unsaturation, etc.. The transfer of proton or electron from an antioxidant to DPPH results in the formation of species that undergo other reactions like coupling, fragmentation, and addition, which affect the rate and stoichiometry of the reaction.
The compounds under study were subjected to DPPH scavenging ability test as per cited literature. A 0.004% solution of reagent DPPH was added to the different concentrations of tested compounds (i.e., 125, 250, 500 and 1000 μg/mL) and the reaction mixture was incubated subsequently for about thirty minutes in dark. Ascorbic acid was used as positive control. The UV-3000 O.R.I. Germany was used to record the change in absorption of the reaction mixture at 517 nm and the percentage scavenging ability of the compounds under study was determined using formula: % scavenging activity =Absorbance of control−Absorbance of compounds /Absorbance of control×100
The experiments were repeated thrice. The GraphPad Prism® (version 4.0, Sandiego, CA, USA) was used to calculate the IC50 values.

Assay [2] can be described thus: Hydrogen peroxide scavenging assay. The following applies: for H2O2 free radical scavenging ability: mean ± S.E.M, n = 3. As to the method: In addition to DPPH the ligand acids and their complexes were also evaluated for their peroxide scavenging ability test. Hydrogen peroxide (H2O2) is a biologically important, non-radical reactive oxygen species (ROS) that can influence several cellular processes. It is a weak oxidizing agent and can inactivate a few enzymes directly, usually via oxidation of essential thiol (-SH) groups. It can cross cell membranes rapidly, and inside the cell, H2O2 probably reacts with Fe^2+ (and possibly Cu^2+) ions to form the hydroxyl radical, which may be the origin of many of its toxic effects. It is, therefore, biologically advantageous for cells to control the amount of hydrogen peroxide that is allowed to accumulate.
The ligand acids and their Cu(II) carboxylates were further subjected to H2O2 scavenging ability test potential by following the procedure as per cited literature. A 2 mM solution of H2O2 was made in 50 mM phosphate buffer having a pH 7.4. In the next step, 0.1 mL of the screened compounds was added to the 0.3 mL (50 mM) of phosphate buffer, then 0.6 mL of H2O2 was added and the solution was vortexed. After following the incubation period of 10 min, the absorption was 230 nm in comparison to the blank.

For assay [3], the target named is acetylcholinesterase (AChE) (Electrophorus electricus, UniProt O42275). Description: biochemical. The following applies: for Inhibition of Acetylcholinesterase (%AChE Activity): n = 3. Format: biochemical. As to the method: The synthesized compounds were evaluated for acetylcholinesterase (ACh) and butyrylcholinesterase (BCh) enzyme inhibitory activities.
Sequence of acetylcholinesterase (AChE) (O42275 24-633): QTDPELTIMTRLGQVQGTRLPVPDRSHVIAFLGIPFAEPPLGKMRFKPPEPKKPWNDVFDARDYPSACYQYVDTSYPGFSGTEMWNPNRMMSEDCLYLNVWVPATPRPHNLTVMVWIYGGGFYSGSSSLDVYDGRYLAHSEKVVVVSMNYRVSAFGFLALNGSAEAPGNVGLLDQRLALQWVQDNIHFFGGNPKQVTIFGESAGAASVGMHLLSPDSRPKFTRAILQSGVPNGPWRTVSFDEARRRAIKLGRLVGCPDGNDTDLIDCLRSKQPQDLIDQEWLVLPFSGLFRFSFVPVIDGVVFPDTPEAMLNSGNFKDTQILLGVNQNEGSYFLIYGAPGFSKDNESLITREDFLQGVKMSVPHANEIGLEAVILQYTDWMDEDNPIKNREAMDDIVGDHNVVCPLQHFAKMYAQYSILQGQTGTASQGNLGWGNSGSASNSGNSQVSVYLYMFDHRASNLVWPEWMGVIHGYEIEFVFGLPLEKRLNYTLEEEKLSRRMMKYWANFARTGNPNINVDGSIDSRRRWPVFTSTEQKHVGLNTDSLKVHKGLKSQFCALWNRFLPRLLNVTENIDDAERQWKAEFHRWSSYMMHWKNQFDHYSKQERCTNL
(§1) The enzymes acetylcholinesterase (AChE) and butyrylcholinesterase (BChE) play an important role in the transfer of signals and physiological function. They assist acetylcholine to hydrolyze and produce choline and acetyl group in synaptic region. So, they are considered as targets in the management of Alzheimer’s disease. Herein, the compounds under study were evaluated for their potential to inhibit acetylthiocholine iodide (AChI) and butyrylthiocholine iodide (BChI) enzymes.
(§2) The well-known Ellman’s assay was implemented to evaluate the inhibitory potential using acetylthiocholine iodide (AChI) and butyrylthiocholine iodide (BChI) as substrates, respectively. The basic principle of the assay is the hydrolysis of acetylthiocholine iodide and butyrylthiocholine iodide by their corresponding enzymes, resulting in the formation of 5-thio-2-nitrobenzoate anion.
(§3) To carry out the assay, 0.1 M buffer solution with pH 8 was prepared as per the cited literature where the pH was adjusted using KOH (potassium hydroxide). Using the freshly prepared buffer and following the dilution, final concentrations of 0.03 U/mL for AChE (518 U/mg solid) and 0.01 U/mL for BChE (7–16 U/mg) were obtained. […] After that, the final solution of each of the AChE and BChE was prepared in distilled water in the presence of […] DTNB and were stored at 8 °C. The experiment was performed by taking 205 µL of inhibitor (tested compound) along with 5 µL of prepared solutions of enzymes, followed by the addition of 5 μL DTNB reagent. They were then incubated for about 15 min in a water bath at a temperature of 30 °C. Later on, 5 µL substrate solution was added to them which were subjected to absorption check at 412 nm. […] The temperature of the spectrophotometer was adjusted at 30 °C and then, following the reaction time of 4 min, the absorbance values were noted after regular intervals. The experiment was repeated, and change in absorption with time was used to calculate the percentage activity of enzyme and enzyme inhibitor [59]. The p values, or calculated probability levels, are categorized as: 5% (p < 0.05), 1% (p < 0.01) and 0.1% (p < 0.001). p < 0.05 means statistically significant and p < 0.001 means highly statistically significant.

Assay [4] concerns the target butyrylcholinesterase (BChE) (Equus caballus, UniProt P81908). Description: biochemical. To be noted: for inhibition of butyrylcholinesterase (% BChE activity): n = 3. The protocol: as §1, §2, §3
Assay [5] in a line: DPPH scavenging assay. To be noted: Comp. Conc. 62.5 µg/mL; mean ± S.E.M, n = 3. In general terms: The DPPH test is a chemical assay of radical scavenging.

Molecules are shown by their SMILES.

Sequence of butyrylcholinesterase (BChE) (P81908 whole entry): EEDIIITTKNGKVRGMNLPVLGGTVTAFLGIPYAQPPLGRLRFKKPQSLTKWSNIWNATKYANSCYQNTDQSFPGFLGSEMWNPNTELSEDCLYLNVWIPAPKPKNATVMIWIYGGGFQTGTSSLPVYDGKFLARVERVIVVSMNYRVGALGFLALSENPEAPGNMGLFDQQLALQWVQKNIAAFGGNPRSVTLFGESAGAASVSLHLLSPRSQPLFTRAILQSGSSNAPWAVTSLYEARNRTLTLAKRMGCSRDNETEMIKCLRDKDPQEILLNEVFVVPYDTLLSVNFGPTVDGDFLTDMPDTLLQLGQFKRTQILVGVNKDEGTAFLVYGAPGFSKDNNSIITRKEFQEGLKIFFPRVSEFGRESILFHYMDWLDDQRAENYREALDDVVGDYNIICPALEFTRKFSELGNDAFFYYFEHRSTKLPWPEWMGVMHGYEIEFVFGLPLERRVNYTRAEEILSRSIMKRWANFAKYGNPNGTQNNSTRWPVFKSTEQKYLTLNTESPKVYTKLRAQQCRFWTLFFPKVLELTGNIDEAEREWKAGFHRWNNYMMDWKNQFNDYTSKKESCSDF

As for `N#Cc1ccncc1.N#Cc1ccncc1.O=C([O-])Cc1cccc(Cl)c1.O=C([O-])Cc1cccc(Cl)c1.O=C([O-])Cc1cccc(Cl)c1.O=C([O-])Cc1cccc(Cl)c1.[Cu+2].[Cu+2]` [Complex 5, Cu2(3-ClC6H4COO)4(4-CNPy)2], in “DPPH scavenging assay [1]”, the “IC50, DPPH Free Radical Scavenging Ability” value stood at 20.29 µg/mL. For the same molecule, the “DPPH Free Radical Scavenging Ability” value in the assay “DPPH scavenging assay [1]” (Comp. Conc. 125 µg/mL) is 64.78 ± 0.60 %; in the assay “DPPH scavenging assay [1]” (Comp. Conc. 250 µg/mL), 71.46 ± 0.53 %; in “DPPH scavenging assay [1]” (Comp. Conc. 500 µg/mL) it was 77.68 ± 0.63 %; in the assay “DPPH scavenging assay [1]” (Comp. Conc. 1000 µg/mL), 85.72 ± 0.79 %; in “DPPH scavenging assay [5]”, 55.56 ± 0.52 %. The “IC50, H2O2 free radical scavenging ability” value in assay [2] is 27.35 µg/mL. Further, the “H2O2 free radical scavenging ability” value in assay [2] (Comp. Conc. 62.5 µg/mL) amounted to 59.81 ± 0.65 %; in assay [2] (Comp. Conc. 125 µg/mL), 66.65 ± 0.78 %; in assay [2] (Comp. Conc. 250 µg/mL), 75.70 ± 0.62 %; in assay [2] (Comp. Conc. 500 µg/mL) it was 80.76 ± 0.63 %; in assay [2] (Comp. Conc. 1000 µg/mL), 84.83 ± 0.62 %. Besides, the “IC50, Inhibition of Acetylcholinesterase” value in assay [3] is 5 µg/mL. Further, the “Inhibition of Acetylcholinesterase (%AChE Activity)” value (“Inhibition … (%AChE Activity)” below) in assay [3] (Comp. Conc. 62.5 µg/mL) is 69.91 ± 1.30 %; in assay [3] (Comp. Conc. 125 µg/mL) it was 71.76 ± 0.61 %; in assay [3] (Comp. Conc. 250 µg/mL), 76.87 ± 1.27 %; in assay [3] (Comp. Conc. 500 µg/mL) it was 82.13 ± 0.20 ^⸸ %; in assay [3] (Comp. Conc. 1000 µg/mL), 89.20 ± 0.23 %. Further, the “IC50, inhibition of butyrylcholinesterase” value in assay [4] was 04 µg/mL. For the same molecule, the “inhibition of butyrylcholinesterase (% BChE activity)” value (“inhibition … (% BChE activity)” for short) in assay [4] (Comp. Conc. 62.5 µg/mL) worked out at 72.74 ± 0.61 %; in assay [4] (Comp. Conc. 125 µg/mL), 76.54 ± 0.50 %; in assay [4] (Comp. Conc. 250 µg/mL), 81.48 ± 0.64 %; in assay [4] (Comp. Conc. 500 µg/mL), 86.86 ± 0.60 %; in assay [4] (Comp. Conc. 1000 µg/mL), 91.62 ± 0.74 %.
With `O=C([O-])Cc1cccc(Cl)c1.O=C([O-])Cc1cccc(Cl)c1.O=C([O-])Cc1cccc(Cl)c1.O=C([O-])Cc1cccc(Cl)c1.Oc1ccncc1.Oc1ccncc1.[Cu+2].[Cu+2]` [Complex 6, Cu2(3-ClC6H4COO)4(4-OHPy)2], in “DPPH scavenging assay [1]”, the “IC50, DPPH Free Radical Scavenging Ability” value worked out at 14.51 µg/mL. Besides, the “DPPH Free Radical Scavenging Ability” value in the assay “DPPH scavenging assay [1]” (Comp. Conc. 125 µg/mL) is on record as 63.47 ± 0.49 %; in “DPPH scavenging assay [1]” (Comp. Conc. 250 µg/mL) it was 68.75 ± 0.14 %; in “DPPH scavenging assay [1]” (Comp. Conc. 500 µg/mL) it was 75.59 ± 0.30 %; in “DPPH scavenging assay [1]” (Comp. Conc. 1000 µg/mL), 80.85 ± 0.18 %; in the assay “DPPH scavenging assay [5]” it was 58.12 ± 0.34 %. Also, the “IC50, H2O2 free radical scavenging ability” value in assay [2] was 10.65 µg/mL. The “H2O2 free radical scavenging ability” value is 61.35 ± 0.18 % in assay [2] (Comp. Conc. 62.5 µg/mL); 66.20 ± 0.15 % in assay [2] (Comp. Conc. 125 µg/mL); 73.42 ± 0.11 % in assay [2] (Comp. Conc. 250 µg/mL); 78.62 ± 0.17 % in assay [2] (Comp. Conc. 500 µg/mL); 83.53 ± 0.20 % in assay [2] (Comp. Conc. 1000 µg/mL). Further, the “Inhibition … (%AChE Activity)” value in assay [3] (Comp. Conc. 62.5 µg/mL) came out at 58.74 ± 0.68 %; in assay [3] (Comp. Conc. 125 µg/mL) it was 62.70 ± 1.25 %; in assay [3] (Comp. Conc. 250 µg/mL) it was 67.05 ± 0.75 %; in assay [3] (Comp. Conc. 500 µg/mL) it was 72.32 ± 1.06 %; in assay [3] (Comp. Conc. 1000 µg/mL) it was 77.34 ± 0.98 %. Besides, the “IC50, inhibition of butyrylcholinesterase” value in assay [4] came to 42 µg/mL. The “inhibition … (% BChE activity)” value in assay [4] (Comp. Conc. 62.5 µg/mL) turned out to be 57.00 ± 1.15 %; in assay [4] (Comp. Conc. 125 µg/mL) it was 61.67 ± 0.89 %; in assay [4] (Comp. Conc. 250 µg/mL), 65.00 ± 0.58 %; in assay [4] (Comp. Conc. 500 µg/mL) it was 72.03 ± 0.23 %; in assay [4] (Comp. Conc. 1000 µg/mL) it was 75.33 ± 0.49 %.
`N#Cc1cccnc1.N#Cc1cccnc1.O=C([O-])Cc1ccccc1Cl.O=C([O-])Cc1ccccc1Cl.O=C([O-])Cc1ccccc1Cl.O=C([O-])Cc1ccccc1Cl.[Cu+2].[Cu+2]` [Complex 1, Cu2(2-ClC6H4COO)4(3-CNPy)2]: the “IC50, DPPH Free Radical Scavenging Ability” value in the assay “DPPH scavenging assay [1]” came to 17.69 µg/mL. Besides, the “DPPH Free Radical Scavenging Ability” value is recorded as 61.40 ± 0.51 % in “DPPH scavenging assay [1]” (Comp. Conc. 125 µg/mL); 67.44 ± 0.55 % in “DPPH scavenging assay [1]” (Comp. Conc. 250 µg/mL); 73.47 ± 0.52 % in “DPPH scavenging assay [1]” (Comp. Conc. 500 µg/mL); 78.39 ± 0.49 % in “DPPH scavenging assay [1]” (Comp. Conc. 1000 µg/mL); 55.57 ± 0.84 % in “DPPH scavenging assay [5]”. Besides, the “H2O2 free radical scavenging ability” value came out at 53.50 ± 0.73 % in assay [2] (Comp. Conc. 62.5 µg/mL); 62.42 ± 0.57 % in assay [2] (Comp. Conc. 125 µg/mL); 70.32 ± 0.52 % in assay [2] (Comp. Conc. 250 µg/mL); 74.27 ± 0.57 % in assay [2] (Comp. Conc. 500 µg/mL); 80.30 ± 0.64 % in assay [2] (Comp. Conc. 1000 µg/mL). The “IC50, Inhibition of Acetylcholinesterase” value in assay [3] is 39 µg/mL. Besides, the “Inhibition … (%AChE Activity)” value in assay [3] (Comp. Conc. 62.5 µg/mL) is reported as 55.67 ± 0.61 %; in assay [3] (Comp. Conc. 125 µg/mL), 62.69 ± 0.77 %; in assay [3] (Comp. Conc. 250 µg/mL), 67.83 ± 0.56 %; in assay [3] (Comp. Conc. 500 µg/mL), 72.60 ± 0.80 %; in assay [3] (Comp. Conc. 1000 µg/mL), 77.61 ± 0.77 %. In addition, in assay [4], the “IC50, inhibition of butyrylcholinesterase” value is 12 µg/mL. For the same molecule, the “inhibition … (% BChE activity)” value is given as 64.53 ± 0.71 % in assay [4] (Comp. Conc. 62.5 µg/mL); 68.51 ± 0.77 % in assay [4] (Comp. Conc. 125 µg/mL); 71.75 ± 0.58 % in assay [4] (Comp. Conc. 250 µg/mL); 76.45 ± 0.49 % in assay [4] (Comp. Conc. 500 µg/mL); 81.79 ± 0.62 % in assay [4] (Comp. Conc. 1000 µg/mL).

For the origin of these results see publication PMC10224544, “Synthesis, Structural Elucidation and Pharmacological Applications of Cu(II) Heteroleptic Carboxylates” (Pharmaceuticals, 2023).
